The experiment has as its target T1, tissue-nonspecific alkaline phosphatase (TNAP) (Homo sapiens, UniProt P05186).
T1 sequence (P05186 18-502 limits assumed): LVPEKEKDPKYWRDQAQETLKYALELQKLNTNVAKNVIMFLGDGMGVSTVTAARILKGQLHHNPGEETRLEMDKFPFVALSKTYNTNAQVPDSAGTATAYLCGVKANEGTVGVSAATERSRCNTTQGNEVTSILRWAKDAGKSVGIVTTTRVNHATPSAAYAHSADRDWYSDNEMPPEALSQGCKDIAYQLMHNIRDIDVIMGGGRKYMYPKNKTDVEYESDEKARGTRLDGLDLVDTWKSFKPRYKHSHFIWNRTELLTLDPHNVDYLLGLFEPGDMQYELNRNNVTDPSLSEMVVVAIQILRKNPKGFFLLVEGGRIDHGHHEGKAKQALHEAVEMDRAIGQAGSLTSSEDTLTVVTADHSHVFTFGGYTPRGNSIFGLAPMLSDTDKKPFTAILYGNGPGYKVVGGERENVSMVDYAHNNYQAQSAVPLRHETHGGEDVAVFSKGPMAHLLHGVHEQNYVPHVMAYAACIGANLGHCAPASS
Kind of experiment: TNAP luminescence-based inhibition assay. The experiment is classed as biochemical.

SMILES strings stand for the structures.

`O=C(c1[nH]nc2c1COc1ccccc1-2)N1CCCC1` [Compound 4]: for the setting “4 versus tricyclic derivative 3”, the improvement in potency was 3 fold. With `O=C(NCCO)c1cc(-c2ccc(Cl)c(Cl)c2Cl)n[nH]1` [Compound 9v], for the setting “versus PLAP and GAPDH”, the “selectivity for TNAP” value is recorded as “at least 2000 fold”. Besides, where the note is “versus screening hit 1”, the “times more potent against TNAP” value is listed as “approximately 200 times”.

Source of the values: paper PMC2752324 (Bioorganic & medicinal chemistry letters, 2008).
